This note sets out measurements from PMC3618206, “High-throughput fluorescent-based NKCC functional assay in adherent epithelial cells” (BMC Cell Biology, 2013).

For this experiment, the system named is T1, c-NKCC2 (chimeric NKCC1-NKCC2 construct).
T1 construct: gene SLC12A2; single polypeptide chimera: NKCC1 backbone with whole NKCC1 transmembrane domain, C-terminal apical sorting domain exchanged for that of mammalian NKCC2 isoform B; N-terminal HA tag; stably expressed in LLC-PK1 cells; NKCC2 part possibly rabbit; with Solute carrier family 12 member 1 (isoform B, C-terminal apical sorting domain)
As to the kind of experiment: FluxOR Tl+ influx fluorescence, initial rate, FlexStation, stably transfected LLC-PK1 cells. Conditions: external Cl- 3-135 mM (gluconate replacement); co-substrates Na+ and Tl+ (2 mM Tl2SO4), K+-free, pH 7.4; single-site fit; Cl- starved cells. In kind it is cell-based.

Usually Km stands for the concentration of substrate that gives half-maximal velocity. For the molecule `Cl` [Cl^-], the Km was 23.4 mM.
